Results reported in patent US10006064B2, “Biosynthetic pathways, recombinant cells, and methods” (REGENTS OF THE UNIVERSITY OF MINNESOTA, priority 2012, dated 2018).
Converted amounts (≈) assume the structure as drawn.

Experiments:
[1] = solubility in water / aqueous medium; cited from earlier work
E. coli strain BW25113 [2] = test: Shake flask fermentation with candidate alcohol acyltransferases, isobutyl acetate production (GC-FID); assay type: cell-based; details: strains identical except for the AAT; 20 g/L glucose, 30° C., 48 hours; ± standard deviation, three colonies
Description: (§1) Each was cloned and transformed into E. coli strain BW25113 for analysis.
(§2) Three synthetic operons were constructed for gene expression to produce isobutyl acetate and isoamyl acetate (FIG. 5). All the plasmids were constructed to be under the regulation of PLlacO1 promoter. To produce isobutyl acetate, the first operon included four coding regions on a medium copy plasmid carrying kanamycin resistance marker in a transcriptional order ilvC-ilvD-alsS-AAT, with the ATT position being occupied by the coding region of one of the five exemplary acyltransferases (AAT) being analyzed. (FIG. 5(a)). The second operon included two coding regions on a high copy plasmid with an ampicillin resistance maker in a transcriptional order kivd-yqhD. For the synthesis of isoamyl acetate, the coding regions of leuA, leuB, leuC, and leuD involved in leucine biosynthesis were introduced in the first medium copy plasmid between alsS and AAT, and the same second high copy plasmid was used. (FIG. 5(b)).
(§3) We assessed the effect of each of the five exemplary acyltransferases on the production titers for isobutyl acetate and isoamyl acetate. […]
(§4) Shake flask fermentations were carried out for the recombinant strains. […] The produced medium-chain ester compounds were quantified by GC-FID (gas chromatography-flame ionization detector) analysis. […]

E. coli strain BW25113 [3] = test: Shake flask fermentation with candidate alcohol acyltransferases, isoamyl acetate production (GC-FID); assay type: cell-based; details: strains identical except for the AAT, with leuABCD; 20 g/L glucose, 30° C., 48 hours
Description: as §1, §2, §3, §4

Row | Molecule | Solubility [1] | isobutyl acetate production titer (E. coli strain BW25113 [2]) [g/L] | isoamyl acetate production titer (E. coli strain BW25113 [3])
1 | CCOC(=O)CC(C)C [Ethyl isovalerate] | 2000 µg/mL (≈ 15.4 mM) | – | –
2 | CCO [Ethanol] | miscible | – | –
3 | CC(C)COC(=O)C(C)C [isobutyl isobutyrate] | 500 µg/mL (≈ 3.47 mM) | – | –
4 | CC(C)CC(=O)OC(=O)CC(C)C [isovaleryl isovalerate] | insoluble | – | –
5 | CCOC(=O)C(C)C [Ethyl isobutyrate] | 3200 µg/mL (≈ 27.5 mM) | – | –
6 | CCOC(C)=O [Ethyl acetate] | 83000 µg/mL | – | –
7 | ATF1: Alcohol acetyltransferase from S. cerevisiae, expressed in recombinant E. coli BW25113 (protein, listed as Saccharomyces cerevisiae) MDLWKRLFEANPTKIRDKKIKNGHFISITNTINLSALMNEIDEKNQAPVQQECLKEMIQNGHARRMGSVEDLYVALNRQNLYRNFCTYGELSDYCTRDQLTLALREICLKNPTLLHIVLPTRWPNHENYYRSSEYYSRPHPVHDYISVLQELKLSGVVLNEQPEYSAVMKQILEEFKNSKGSYTAKIFKLTTTLTIPYFGPTGPSWRLICLPEEHTEKWKKFIFVSNHCMSDGRSSIHFFHDLRDELNNIKTPPKKLDYIFKYEEDYQLLRKLPEPIEKVIDFRPPYLFIPKSLLSGFIYNHLRFSSKGVCMRMDDVEKTDDVVTEIINISPTEFQAIKANIKSNIQGKCTITPFLHVCWFVSLHRWGKFFKPLNFEWLTDIFIPADCRSQLPDDDEMRQMYRYGANVGFIDFTPWISEFDMNDNKENFWPLIEHYHEVISEALRNKKHLHGLGFNIQGFVQKYVNIDKVMCDRAIGKRRGGTLLSNVGLFNQLEEPDAKYSICDLAFGQFQGSWHQAFSLGVCSTNVKGMNIVVASTKNVVGSQESLEELCSIYKALLLGP | – | 2.14 ± 0.17 | highest production titers
8 | ATF2: Alcohol acetyltransferase from S. cerevisiae, expressed in recombinant E. coli BW25113 (protein, listed as Saccharomyces cerevisiae) MEDIEGYEPHITQELIDRGHARRMGHLENYFAVLSRQKMYSNFTVYAELNKGVNKRQLMLVLKVLLQKYSTLAHTIIPKHYPHHEAYYSSEEYLSKPFPQHDFIKVISHLEFDDLIMNNQPEYREVMEKISEQFKKDDFKVTNRLIELISPVIIPLGNPKRPNWRLICLPGKDTDGFETWKNFVYVTNHCGSDGVSGSNFFKDLALLFCKIEEKGFDYDEEFIEDQVIIDYDRDYTEISKLPKPITDRIDYKPALTSLPKFFLTTFIYEHCNFKTSSESTLTARYSPSSNANASYNYLLHFSTKQVEQIRAQIKKNVHDGCTLTPFIQACFLVALYRLDKLFTKSLLEYGFDVAIPSNARRFLPNDEELRDSYKYGSNVGGSHYAYLISSFDIPEGDNDKFWSLVEYYYDRFLESYDNGDHLIGLGVLQLDFIVENKNIDSLLANSYLHQQRGGAIISNTGLVSQDTTKPYYVRDLIFSQSAGALRFAFGLNVCSTNVNGMNMDMSVVQGTLRDRGEWESFCKLFYQTIGEFASL | – | 1.69 ± 0.46 | highest production titers
